We go through five compounds from publication PMC3021692, “Synthesis and Pharmacological Evaluation of Novel Schiff Base Analogues of 3-(4-amino) Phenylimino) 5-fluoroindolin-2-one” (Journal of Young Pharmacists : JYP, 2010).

Format in all cases: in vivo
The test system of one data set is Wistar albino mice. The data set can be described thus: Analgesic activity, tail-flick technique. Particulars: for Percent analgesic activity: mean ± SD (n = 6); for Analgesic activity (in words): tail-flick, structure-activity comparison within the series / vs diclofenac sodium. The protocol: (§1) The synthesized compounds were evaluated for analgesic, anti-inflammatory, and ulcerogenic index. […] The test compounds and the standard drugs were administered in the form of a suspension (1% carboxymethyl cellulose as a vehicle) by oral route for analgesic and anti-inflammatory but for ulcerogenicity studies by intraperitoneally as suspension in 10% v/v Tween-20. Each group consisted of six animals. The animals were procured from the C. L. Baid Metha College of pharmacy, Chennai, and were maintained in colony cages at 25 ±2°C, relative humidity of 45-55%, under a 12-h light and dark cycle; they were fed standard animal feed. All the animals were acclimatized for a week before use. The Institutional Animal Ethics Committee approved the protocol adopted for the experimentation of animals.
The analgesic activity was performed by tail-flick technique using Wistar albino mice (25-35 g) of either sex selected by the random sampling technique.[1314] Diclofenac sodium at a dose level of 10 mg/kg and 20 mg/kg was administered orally as reference drug for comparison. The test compounds at two dose levels (10, 20 mg/kg) were administered orally. The reaction time was recorded at 30 min, 1, 2, and 3 h after the treatment, and cut-off time was 10 s. The percent analgesic activity (PAA) was calculated by the following formula, where T1 is the reaction time (s) before treatment, and T2 is the reaction time (s) after treatment.

Data set [1] relates to carrageenan-induced paw edema in rats. The data set can be described thus: Anti-inflammatory activity, carrageenan-induced paw edema test. As to conditions: for Percent anti-inflammatory activity (percent inhibition of paw edema): mean ± SD (n = 6). The protocol:
as §1
Anti-inflammatory activity was evaluated by carrageenan-induced paw edema test in rats.[15] Diclofenac sodium 10, 20 mg/kg was administered as a standard drug for comparison. The test compounds were administered at two dose levels (10 mg/kg, 20 mg/kg). The paw volumes were measured using the mercury displacement technique with the help of a plethysmograph (Model PLYAN; Buxco, USA) immediately before and 30 min, 1, 2, and 3 h after carrageenan injection. The percent inhibition of paw edema was calculated using the following formula.
Percent inhibition I = 100 1− (a−x) / (b−y)
Where x is the mean paw volume of rats before the administration of carrageenan and test compounds or reference compound (test group), a is the mean paw volume of rats after the administration of carrageenan in the test group (drug treated), b is the mean paw volume of rats after the administration of carrageenan in the control group, y is the mean paw volume of rats before the administration of carrageenan in the control group.
For orientation: The carrageenan paw model is a standard test of acute inflammation.

The subject of data set [2] is Albino rats of Wistar strain. The data set can be described thus: Evaluation of ulcerogenicity index (pylorus ligation). Set-up: scale not given here. As to conditions: test compounds 20 mg/kg intraperitoneally, pylorus ligated on fourth day, mean ± SD (n = 6). Here is the method: The synthesized compounds were evaluated for analgesic, anti-inflammatory, and ulcerogenic index. […] The test compounds and the standard drugs were administered in the form of a suspension (1% carboxymethyl cellulose as a vehicle) by oral route for analgesic and anti-inflammatory but for ulcerogenicity studies by intraperitoneally as suspension in 10% v/v Tween-20. Each group consisted of six animals. The animals were procured from the C. L. Baid Metha College of pharmacy, Chennai, and were maintained in colony cages at 25 ±2°C, relative humidity of 45-55%, under a 12-h light and dark cycle; they were fed standard animal feed. All the animals were acclimatized for a week before use. The Institutional Animal Ethics Committee approved the protocol adopted for the experimentation of animals. Ulceration in rats was induced as described by Goyal et al. Albino rats of Wistar strain weighing 150-200 g of either sex were divided into various groups each of six animals.[16] Control group of animals was administered only with 10% v/v Tween 80 suspension intraperitonially. One group was administered with aspirin (German Remedies) intraperitoneally at a dose of 200 mg/kg once daily for 3 days. The remaining group of animals was administered with test compounds intraperitoneally at a dose of 20 mg/kg. On fourth day, Pylorus was ligated as per the method of Shay et al.[17] Animals were fasted for 36 h before the pylorus ligation procedure. Four hours after the ligation, animals were sacrificed. The stomach was removed and opened along with the greater curvature. Ulcer index was determined by the method of Ganguly and Bhatnagar.[18]

[3] abbreviates: 10 mg/kg oral, 30 min after treatment.
Where [4] appears, read: 10 mg/kg oral, 1 h after treatment.
The mark [5] stands for this setting: 10 mg/kg oral, 2 h after treatment.
Where [6] appears, read: 10 mg/kg oral, 3 h after treatment.
[7] abbreviates: 20 mg/kg oral, 30 min after treatment.
[8] abbreviates: 20 mg/kg oral, 1 h after treatment.
The mark [9] stands for this setting: 20 mg/kg oral, 2 h after treatment.
Setting [10] is: 20 mg/kg oral, 3 h after treatment.
[11] abbreviates: 10 mg/kg oral, 30 min after carrageenan.
Where [12] appears, read: 10 mg/kg oral, 1 h after carrageenan.
[13] abbreviates: 10 mg/kg oral, 2 h after carrageenan.
[14] abbreviates: 10 mg/kg oral, 3 h after carrageenan.
The mark [15] stands for this setting: 20 mg/kg oral, 30 min after carrageenan.
[16] abbreviates: 20 mg/kg oral, 1 h after carrageenan.
The mark [17] stands for this setting: 20 mg/kg oral, 2 h after carrageenan.
[18] abbreviates: 20 mg/kg oral, 3 h after carrageenan.

In the case of `CC(=Nc1ccc(N=C2C(=O)Nc3ccc(F)cc32)cc1)c1ccccc1` [Compound N5], the Percent analgesic activity was determined as 44 ± 1.76 % with Wistar albino mice (setting [3]); 49 ± 1.88 % in the data set on Wistar albino mice (setting [4]); 52 ± 1.55 % with Wistar albino mice (setting [5]); 32 ± 1.26 % in the data set with Wistar albino mice (setting [6]); 52 ± 1.33 % in the data set with Wistar albino mice (setting [7]); 55 ± 1.95 % in the data set on Wistar albino mice (setting [8]). The Percent analgesic activity with Wistar albino mice (setting [9]) came out at 59 ± 1.36 %; with Wistar albino mice (setting [10]), 42 ± 1.48 %. Besides, in the data set with Wistar albino mice, the “Analgesic activity (in words)” value is reported as “moderate decrease in activity”. The “Percent anti-inflammatory activity (percent inhibition of paw edema)” value stood at 39 ± 1.56 % in data set [1] (setting [11]); 46 ± 1.88 % in data set [1] (setting [12]); 52 ± 1.65 % in data set [1] (setting [13]); 32 ± 1.26 % in data set [1] (setting [14]); 45 ± 1.73 % in data set [1] (setting [15]); 54 ± 1.95 % in data set [1] (setting [16]). For the same compound, the “Percent anti-inflammatory activity (percent inhibition of paw edema)” value came out at 59 ± 1.36 % in data set [1] (setting [17]) and 42 ± 1.48 % in data set [1] (setting [18]). The compound also registered a Ulcer index in data set [2] of 0.82 ± 1.32.
Regarding `O=C1Nc2ccc(F)cc2C1=Nc1ccc(N=C2CCCCC2)cc1` [Compound N4], the Percent analgesic activity in the data set on Wistar albino mice (setting [3]) is reported as 48 ± 1.28 %; with Wistar albino mice (setting [4]) it was 52 ± 1.52 %; in the data set on Wistar albino mice (setting [5]), 54 ± 1.15 %; with Wistar albino mice (setting [6]), 35 ± 1.76 %; in the data set on Wistar albino mice (setting [7]) it was 55 ± 1.36 %; in the data set on Wistar albino mice (setting [8]), 57 ± 1.66 %. The values for the Percent analgesic activity with Wistar albino mice (setting [9]) and with Wistar albino mice (setting [10]) were 59 ± 1.19 % and 44 ± 1.65 %, respectively. Further, the “Analgesic activity (in words)” value in the data set with Wistar albino mice is “moderate decrease in activity”. Moreover, the “Percent anti-inflammatory activity (percent inhibition of paw edema)” value in data set [1] (setting [11]) stood at 38 ± 1.82 %; in data set [1] (setting [12]), 50 ± 1.24 %; in data set [1] (setting [13]), 55 ± 1.15 %; in data set [1] (setting [14]) it was 35 ± 1.76 %; in data set [1] (setting [15]) it was 45 ± 1.36 %; in data set [1] (setting [16]), 56 ± 1.83 %. Also, the “Percent anti-inflammatory activity (percent inhibition of paw edema)” value in data set [1] (setting [17]) was found to be 60 ± 1.19 %; in data set [1] (setting [18]) it was 44 ± 1.65 %. In data set [2], the Ulcer index is on record as 0.89 ± 1.26.
As to `CCC(C)=Nc1ccc(N=C2C(=O)Nc3ccc(F)cc32)cc1` [Compound N1], the Percent analgesic activity in the data set on Wistar albino mice (setting [3]) was 47 ± 1.25 %; in the data set with Wistar albino mice (setting [4]), 51 ± 1.32 %; in the data set with Wistar albino mice (setting [5]), 53 ± 1.15 %; in the data set with Wistar albino mice (setting [6]) it was 31 ± 1.96 %; in the data set with Wistar albino mice (setting [7]), 54 ± 1.36 %; in the data set on Wistar albino mice (setting [8]), 58 ± 1.96 %. For the same compound, the Percent analgesic activity in the data set on Wistar albino mice (setting [9]) is 60 ± 1.16 %; in the data set on Wistar albino mice (setting [10]), 47 ± 1.45 %. For the same compound, the “Percent anti-inflammatory activity (percent inhibition of paw edema)” value in data set [1] (setting [11]) came to 39 ± 1.25 %; in data set [1] (setting [12]) it was 45 ± 1.32 %; in data set [1] (setting [13]) it was 52 ± 1.15 %; in data set [1] (setting [14]), 32 ± 1.96 %; in data set [1] (setting [15]), 44 ± 1.36 %; in data set [1] (setting [16]), 52 ± 1.96 %. For the same compound, the “Percent anti-inflammatory activity (percent inhibition of paw edema)” value in data set [1] (setting [17]) is given as 58 ± 1.32 %; in data set [1] (setting [18]), 37 ± 1.45 %. In data set [2], this compound returned a Ulcer index of 0.84 ± 1.43.
`O=C1Nc2ccc(F)cc2C1=Nc1ccc(N=Cc2ccc(Cl)cc2)cc1` [Compound N9]: the Percent analgesic activity in the data set on Wistar albino mice (setting [3]) is on record as 42 ± 1.82 %; in the data set with Wistar albino mice (setting [4]), 44 ± 1.72 %; in the data set on Wistar albino mice (setting [5]), 48 ± 1.59 %; with Wistar albino mice (setting [6]), 38 ± 1.72 %; with Wistar albino mice (setting [7]), 46 ± 1.68 %; in the data set on Wistar albino mice (setting [8]), 51 ± 1.46 %. For the same compound, the Percent analgesic activity was 57 ± 1.18 % with Wistar albino mice (setting [9]) and 45 ± 1.32 % in the data set on Wistar albino mice (setting [10]). Further, in the data set with Wistar albino mice, the “Analgesic activity (in words)” value is recorded as “decreasing activity”. Further, the “Percent anti-inflammatory activity (percent inhibition of paw edema)” value was found to be 38 ± 1.82 % in data set [1] (setting [11]); 44 ± 1.32 % in data set [1] (setting [12]); 48 ± 1.99 % in data set [1] (setting [13]); 38 ± 1.72 % in data set [1] (setting [14]); 46 ± 1.68 % in data set [1] (setting [15]); 51 ± 1.46 % in data set [1] (setting [16]). Also, the “Percent anti-inflammatory activity (percent inhibition of paw edema)” value in data set [1] (setting [17]) is on record as 57 ± 1.18 %; in data set [1] (setting [18]), 45 ± 1.32 %. Besides, the Ulcer index in data set [2] came to 0.75 ± 1.26.
As for `O=C1Nc2ccc(F)cc2C1=Nc1ccc(N=Cc2ccc([N+](=O)[O-])cc2)cc1` [Compound N8], the Percent analgesic activity is recorded as 39 ± 1.75 % with Wistar albino mice (setting [3]); 46 ± 1.43 % with Wistar albino mice (setting [4]); 48 ± 1.24 % in the data set on Wistar albino mice (setting [5]); 36 ± 1.36 % in the data set with Wistar albino mice (setting [6]); 48 ± 1.46 % in the data set with Wistar albino mice (setting [7]); 51 ± 1.92 % in the data set on Wistar albino mice (setting [8]). Moreover, the Percent analgesic activity worked out at 54 ± 1.16 % in the data set on Wistar albino mice (setting [9]) and 39 ± 1.48 % in the data set with Wistar albino mice (setting [10]). For the same compound, the “Analgesic activity (in words)” value with Wistar albino mice was “further decrease of activity”. Further, the “Percent anti-inflammatory activity (percent inhibition of paw edema)” value is 40 ± 1.65 % in data set [1] (setting [11]); 44 ± 1.53 % in data set [1] (setting [12]); 48 ± 1.74 % in data set [1] (setting [13]); 36 ± 1.36 % in data set [1] (setting [14]); 49 ± 1.46 % in data set [1] (setting [15]); 52 ± 1.92 % in data set [1] (setting [16]). Also, the entries for the “Percent anti-inflammatory activity (percent inhibition of paw edema)” value in data set [1] (setting [17]) and in data set [1] (setting [18]) were 56 ± 1.16 % and 39 ± 1.48 %, respectively. The “Anti-inflammatory activity compared to reference standard diclofenac sodium (in words)” value in data set [1] (carrageenan-induced paw edema in rats) is “equipotent”. Besides, the Ulcer index in data set [2] came out at 0.92 ± 1.45.
